“And” between values parts separate entries of the source, which are not always exact repeats. Equal entries are not always repeated.
Columns and labels:
BCL-2 G4 = details: CD melting at 264 nm, 2 μM DNA, 1 mol equiv peptide, 5 mM KH2PO4/K2HPO4 pH 7.0, 20 mM KCl, 1°C/min; average of three; T1/2 DNA alone 60.7°C
Procedure: (§1) CD experiments were carried out using a Jasco J-815 spectropolarimeter equipped with a PTC-423S/15 Peltier temperature controller. G4-forming and duplex-forming DNA molecules were prepared at a concentration of 2 μM in 5 mM KH2PO4/K2HPO4 buffer (pH 7.0) containing 20 mM KCl or LiCl. CD spectra of DNA/peptide mixtures were obtained by adding 1 mol equiv of peptide (stock solutions of 10 mM in H2O) with respect to the oligonucleotide. CD spectra of DNA molecules in the absence and presence of peptide were recorded at 20 and 100°C in the wavelength range of 220−320 nm and averaged over three scans, utilizing a scan rate of 100 nm/min with a 0.5 s response time and 1 nm bandwidth. The buffer baseline was subtracted from each spectrum. Additionally, CD spectra of Myb1^397–415 in the absence and presence of G4s were recorded at 20°C in the 200−250 nm wavelength range using a scan rate of 20 nm/min, with a 4 s response time and 2 nm bandwidth. The G4 spectra were subtracted from the corresponding G4/peptide mixtures to obtain information on the peptide spectrum in the presence of G4. The percentage of secondary structures adopted by the peptide in the absence and presence of the G4s was estimated using the BeStSel software ([26]). CD melting experiments were performed in the absence and presence of peptides (1 or 2 mol equiv) in the 20−100°C temperature range at 1°C/min heating rate, monitoring changes of the CD signal at wavelengths corresponding to the maximum CD intensity for the G4s (264 nm for c-KIT1, c-KIT2, c-MYC, HER2, HT-FANA, BCL-2, and VEGFR-17T; 290 nm for HRAS1, LWDLN1, HT1, and HT2) and at 252 nm for ds12 duplex. The apparent melting temperatures (T1/2) were determined using non-linear curve fitting with OriginLab© 2021 software (OriginLab Corp., MA, USA). ΔT1/2 values were calculated as the difference in the T1/2 values of the DNA structures in the presence and absence of a peptide.

HER2 G4 [1] = details: CD melting at 264 nm, 2 μM DNA, 1 mol equiv peptide, 5 mM KH2PO4/K2HPO4 pH 7.0, 20 mM KCl, 1°C/min; average of three; T1/2 DNA alone 62.4°C
Procedure: as §1

c-KIT1 G4 = details: CD melting at 264 nm, 2 μM DNA, 1 mol equiv peptide, 5 mM KH2PO4/K2HPO4 pH 7.0, 20 mM KCl, 1°C/min; average of three; T1/2 DNA alone 53.8°C
Procedure: as §1

c-MYC G4 [2] = details: CD melting at 264 nm, 2 μM DNA, 1 mol equiv peptide, 5 mM KH2PO4/K2HPO4 pH 7.0, 20 mM LiCl, 1°C/min; average of three; T1/2 DNA alone 68.2°C
Procedure: as §1

c-MYC G4 [3] = test: Microscale thermophoresis (MST) binding to c-MYC G4; design: species or system human; details: 25°C, 20 nM FITC-labelled peptide, DNA serial dilution, 5 mM KH2PO4/K2HPO4 pH 7.0, 20 mM KCl, 0.1% Tween, 5% DMSO
Procedure: (§2) MST experiments were conducted using a Monolith NT.115 instrument (NanoTemper Technologies, Munich, Germany) at 25°C with medium MST power settings. […] DNA samples were also diluted using the same buffer supplemented with 0.1% Tween. During MST experiments, the concentration of the labelled peptide was kept constant at 20 nM, while a serial dilution of the investigated DNA molecules (ranging from 10 or 20 μM) was prepared and mixed with the peptide solution in a 1:1 volume ratio. All the samples, with a final concentration of 5% DMSO, were loaded into standard capillaries (NanoTemper Technologies) for MST measurements. Data analysis was carried out using the MO.Affinity Analysis (v2.3) software provided with the instrument.

HER2 G4 [4] = test: Microscale thermophoresis (MST) binding to HER2 G4; design: species or system human; details: 25°C, 20 nM FITC-labelled peptide, DNA serial dilution, 5 mM KH2PO4/K2HPO4 pH 7.0, 20 mM KCl, 0.1% Tween, 5% DMSO
Procedure: as §2

HRAS1 G4 = test: Microscale thermophoresis (MST) binding to HRAS1 G4; design: species or system human; details: 25°C, 20 nM FITC-labelled peptide, same buffer, n.d. = not determined due to undetectable binding
Procedure: as §2

HT1 G4 = test: Microscale thermophoresis (MST) binding to HT1 G4; design: species or system human; details: 25°C, 20 nM FITC-labelled peptide, DNA serial dilution, 5 mM KH2PO4/K2HPO4 pH 7.0, 20 mM KCl, 0.1% Tween, 5% DMSO
Procedure: as §2

c-KIT2 G4 = test: Isothermal titration calorimetry (ITC) with c-KIT2 G4; assay type: binding, human; details: ITC at 25°C, triplicate
Procedure: (§3) ITC experiments were conducted at 25°C using a nano-ITC Low Volume calorimeter (TA instruments, Lindon, UT, USA). DNA and peptide solutions were prepared using the same batch of buffer (5 mM KH2PO4/K2HPO4 buffer containing 20 mM KCl, pH 7.0) to prevent differences in buffer composition and pH. Each titration consisted of 25 injections of a 2 μl peptide solution (280–400 μM) sequentially injected using a computer-controlled 50 μl syringe, into the calorimetric vessel (190 μl) containing the oligonucleotide (16–20 μM). A spacing of 300 s between each injection was applied to allow the system to reach the equilibrium. The heat generated by peptide dilution was assessed in a control experiment by injecting the peptide solution into the buffer (Supplementary Figure S30). All measurements were performed in triplicate. Subsequently, the interaction heat for each injection was calculated considering the correction for the heat of peptide dilution. The corrected heat values were plotted as a function of the molar ratio to provide binding isotherms. The isotherms were fitted with a multiple-sites binding model using the NanoAnalyze software (TA instruments) provided with the instrument. This analysis provided the equilibrium binding constant (Ka), binding enthalpy (ΔH°), and stoichiometry of interaction (n). The equilibrium dissociation constant (Kd), Gibbs free-energy change and entropy change were determined using the following relationships: Kd = 1/Ka, ΔG° = -RT ln Ka (R = 8.314 J mol^−1 K^−1, T = 298.15 K), and TΔS° = ΔH° – ΔG°.

HER2 G4 [5] = test: Isothermal titration calorimetry (ITC) with HER2 G4; assay type: binding, human; details: ITC at 25°C, triplicate
Procedure: as §3, with “The isotherms were fitted with a multiple-sites binding model using the NanoAnalyze software (TA instruments) provided with the instrument. This analysis provided the equilibrium binding constant (Ka), binding enthalpy (ΔH°), and stoichiometry of interaction (n).” left out

## Ac-NHTGNSIRHRFRVYLSKRL-NH2 [Myb^397–415]
BCL-2 G4
  ΔT1/2 of BCL-2 G4: 8.0 (±0.2) °C
HER2 G4 [1]
  ΔT1/2 of HER2 G4: 7.0 (±0.2) °C
c-KIT1 G4
  ΔT1/2 of c-KIT1 G4: 6.2 (±0.2) °C
c-MYC G4 [2]
  ΔT1/2 of c-MYC G4: 5.0 (±0.2) °C
c-MYC G4 [3]
  Kd: 430 nM
HER2 G4 [4]
  Kd: 130 nM
HRAS1 G4
  Kd for binding to HRAS1 G4: negligible binding
HT1 G4
  Kd: 900 nM
c-KIT2 G4; c-KIT2 G4 16–20 μM, peptide 280–400 μM, 5 mM KH2PO4/K2HPO4, 20 mM KCl, pH 7.0
  Ka: 5.0 × 10^6 M^−1 and 5.0 (±0.3) ×10^6 M^−1
c-KIT2 G4; c-KIT2 G4, Kd = 1/Ka
  Kd: 200 nM
HER2 G4 [5]; HER2 G4 16–20 μM, peptide 280–400 μM, 5 mM KH2PO4/K2HPO4, 20 mM KCl, pH 7.0
  Ka: 1.0 × 10^7 M^−1 and 1.0 (±0.1) ×10^7 M^−1
HER2 G4 [5]; HER2 G4, Kd = 1/Ka
  Kd: 100 nM

Reference: paper PMC11229374, “Unlocking the potential of protein-derived peptides to target G-quadruplex DNA: from recognition to anticancer activity” (Nucleic Acids Research, 2024)
